Results from patent US5532382A, “Benzothiophenes substituted at the 3-carbonyl” (Eli Lilly and Company, priority 1995, dated 1996).

Columns and labels:
MCII cells = assay: MCII MAST CELL TOXICITY ASSAY (XTT); type: cell-based, mouse; details: XTT formazan, 37° C. 4-12 hours; read-out: MCII Mast Cell Toxicity IC50
Text: MCII MAST CELL TOXICITY ASSAY
This toxicity assay is run in parallel with the MCII mast cell LTC4 assay and serves as an indicator of compound effects on the viability and metabolic activity of the MCII cells. This "toxicity" assay is based on the ability of dehydrogenase enzymes present in viable metabolically active cells to bioreduce the tetrazolium salt XTT yielding a colored, water soluble formazan product. (see, Roehm et al.) An improved colorimetric assay for cell proliferation and viability utilizing the tetrazolium salt XTT. J. Immunol. Methods 142:257-65 (1991).
A duplicate polystyrene 96-well tissue culture plate (Costar) is set up with sensitized MCII cells, EM95 ascites, media and dilutions of the test compound as described above. The complete media is supplemented with concanavalin A induced culture supernatants from the mouse helper T cell clone D10.G4, as a source of mast cell growth factors.
Wells of the toxicity assay Elate are pulsed with 25 μl XTT (Sigma) plus phenazine methosulfate (Aldrich) giving a final concentration of 0.2 mg/ml XTT and 25 μM phenazine methosulfate. The plates are incubated at 37° C. in 10% CO2 for 4-12 hours and then production of the XTT formazan product determined by measuring the optical density of the wells at a wavelength of 450 nm. The positive control on each plate is stimulated MCII cells with dimethyl sulfoxide vehicle alone and the negative control is the same reaction mixture without cells. The background negative control value is subtracted from experimental and positive control values and the data are reported as percent of positive control.

[1] = system: production of thromboxane B2 (T×B2) in plasma-depleted blood; assay: Inhibition of Eicosanoid Production by Plasma-depleted Blood: TxB2; type: cell-based; details: Homo sapiens, read-out: Plasma DPLTD Blood TxB2 IC50
Experimental: Inhibition of Eicosanoid Production by Plasma-depleted Blood.
Compounds are evaluated for their ability to inhibit production of leukotriene B4 (LTB4) and thromboxane B2 (T×B2) upon stimulation of human plasma-depleted blood with formyl-methionyl-leucyl-phenylalanine (FMLP) and thrombin. LTB4 is produced by neutrophils and T×B2 by platelets stimulated at their respective receptors with FMLP and thrombin. The assay is carried out in 1 ml deep well polypropylene 96-well plates (Beckman). For the test, ten ml of blood is collected in EDTA at a final concentration of 1.5 mg/ml. Then, 40 ml glucose phosphate buffer containing 0.1% gelatin is added and the suspension centrifuged at 900 g for 10 minutes at room temperature. The supernatant is discarded and the cells washed once with 50 ml buffer before resuspending them in 50 ml Krebs-Ringers-Henseleit Buffer containing 0.1% gelatin, 1 mM […], 1.1 mM MgCl2 (KRH buffer). Working solutions of test compounds are made by dissolving the material in DMSO at 10 mM and diluting with appropriate amounts of KRH buffer. An agonist solution is made containing 1 μM FMLP (sigma) and 10 units/ml of thrombin in KRH buffer (Enzyme Research Labs). […] The amount of LTB4 and T×B2 produced is determined by the use of a competetive enzyme immunoassay using commercial reagents from Cayman Chemical.

Structure (SMILES) | CC50 (MCII cells) | IC50 [1]
O=C(c1ccccc1)c1c(-c2ccc(O)cc2)sc2cc(O)ccc12 [Compound A] | 0.3 µM | 
Oc1ccc(-c2cc3ccc(O)cc3s2)cc1 [Compound B] | < 10 µM | 
O=C(c1ccc(O)cc1)c1c(-c2ccc(O)cc2)sc2cc(O)ccc12 [Compound D] |  | > 9.8 µM
O=C(c1ccc(-c2ccccc2)cc1)c1c(-c2ccc(O)cc2)sc2cc(O)ccc12 [Example 1, 6-hydroxyphenyl-2-(p-hydroxyphenyl)-(benzo(B)thien-3-yl)(p-phenyl)phenyl methanone] | > 10 µM | 
O=C(c1cccc2ccccc12)c1c(-c2ccc(O)cc2)sc2cc(O)ccc12 [Example 2, 6-hydroxyphenyl-2-(p-hydroxyphenyl)-(benzo(B)thien-3-yl) (α-naphyl)methanone] | > 10 µM | 
O=C(c1ccc2ccccc2c1)c1c(-c2ccc(O)cc2)sc2cc(O)ccc12 [Example 3, 6-hydroxyphenl-2-(p-hydroxyphenyl)-(benzo(B)thien-3-yl) (β-napthyl)methanone] | > 10 µM | 
